Data from patent publication US20250129102A1, “CRYSTAL FORM OF PYRIMIDINE HETEROCYCLIC COMPOUND AND PREPARATION METHOD THEREFOR” (D3 Bio (Wuxi) Co., Ltd., priority 2021, published 2025).
Where two headings read alike, the source gives them in different places.

Legend:
[1] = Metabolic stability in hepatocytes, beagle dogs; assay type: in vitro ADME; conditions: dog, cryopreserved hepatocytes
Procedure: (§1) Metabolic stabilities of assay compound in hepatocytes of CD-1 mice, SD rats, beagle dogs, cynomolgus monkeys, and human were assayed, respectively.
(§2) Several 96-well sample precipitation plates were prepared and named T0, T15, T30, T60, T90, T120, T0-MC, T120-MC and blank substrates, respectively. The recovery medium and incubation medium were taken out in advance and placed in a 37° C. water bath for pre-heating. Cryopreserved hepatocytes were removed from the liquid nitrogen tank and immediately immersed in a 37° C. water bath (approximately 90 seconds). After the cryopreserved hepatocytes had thawed and loosened, they were poured into a centrifuge tube containing 40 mL of recovery medium, and the tube was gently inverted to allow the cells to be resuspended in the recovery medium. The cells were centrifuged at 100×g at room temperature for 5 min, and the supernatant was removed. The hepatocytes were resuspended in an appropriate volume of incubation medium, and the cell viability was calculated by Trypan Blue staining method. 198 μL of hepatocyte suspension (0.51×10^6 cells/mL) was added to the preheated incubation plate. For the culture medium control group, 198 μL of hepatocyte-free incubation medium was added to T0-MC and T120-MC incubation plate. All incubation plates were pre-incubated in a 37° C. incubator for 10 minutes. Then 2 μL of working solutions of the assay sample and the control compound were added, respectively, and the mixture was mixed well. The incubation plate was immediately put into the shaker in the incubator, and the reaction was initiated while starting the timer. For each time point of each compound, 2 duplicate samples were prepared. The incubation conditions were 37° C., saturated humidity, and 5% CO2. […] All samples were mixed well and analyzed by LC/MS/MS.

[2] = Metabolic stability in hepatocytes, human; assay type: in vitro ADME; conditions: cryopreserved hepatocytes
Procedure: as §1, §2

[3] = Stability in plasma, CD-1 mice; assay type: in vitro ADME; conditions: CD-1 mice plasma, 2 μM, 37° C.
Procedure: (§3) Stabilities of the assay compound in plasma of CD-1 mice and human were assayed, respectively. Cryopreserved plasma was thawed for 10 to 20 min. After the plasma was completely thawed, it was placed in a centrifuge and centrifuged at 3220×g for 5 min to remove any suspended matter and sediment in the plasma. 96-well incubation plates were prepared and named T0, T10, T30, T60, T120, respectively. 98 μL of blank plasmas of mouse, rat, canine, monkey and human were added to the corresponding incubation plates, then 2 μL of working solutions of the compound or the control compound were added to the corresponding plates in duplicate. All samples were incubated in a 37° C. water bath. The final incubation concentrations of the compound and the control compounds bisacodyl, enalapril maleate, procaine and probanthine were 2 μM, and the final organic phase content was 2.0%. At the end of incubation for each time point, the corresponding incubation plate was removed and 400 μL of a solution of 200 ng/mL of tolbutamide and labetalol in acetonitrile was added to each corresponding sample well to precipitate the protein. All sample plates were sealed and shaken well, and then centrifuged at 3220×g for 20 minutes. 50 μL of supernatant was taken out and diluted in 100 μL of ultrapure water. All samples were mixed well and then analyzed by LC/MS/MS.

[4] = Stability in plasma, human; assay type: in vitro ADME; conditions: 2 μM, 37° C.
Procedure: as §3

[5] = Protein binding rate in plasma by equilibrium dialysis, CD-1 mice; assay type: in vitro ADME
Procedure: Protein binding rate of the assay compound in plasma of CD-1 mice, SD rats, beagle dogs, cynomolgus monkeys and human was determined by equilibrium dialysis.
Plasma samples with a compound concentration of 2 μM were prepared using plasma of the above five species, placed in a 96-well equilibrium dialysis device, and dialyzed with phosphate buffer solution at 37±1° C. for 4 hours. Warfarin was used as the control compound in this assay. The concentrations of the assay compound in plasma and dialysis buffer were determined by LC-MS/MS method.

[6] = Protein binding rate in plasma by equilibrium dialysis, human; assay type: in vitro ADME; conditions: 2 μM, equilibrium dialysis 4 hours
Procedure: Protein binding rate of the assay compound in plasma of CD-1 mice, SD rats, beagle dogs, cynomolgus monkeys and human was determined by equilibrium dialysis. Plasma samples with a compound concentration of 2 μM were prepared using plasma of the above five species, placed in a 96-well equilibrium dialysis device, and dialyzed with phosphate buffer solution at 37±1° C. for 4 hours. Warfarin was used as the control compound in this assay. The concentrations of the assay compound in plasma and dialysis buffer were determined by LC-MS/MS method.

[7] = Pharmacokinetics by oral administration and intravenous injection in CD mice; assay type: in vivo; conditions: for Area under the plasma concentration-time curve, AUCu: AUC0-last × PPB(Unbound %); for Vd: CD, iv, 2 mg/kg; for AUC(0-t): read-out: Area under the plasma concentration-time curve, AUC0-last
Procedure: The mixture was vortexed and sonicated to prepare a 1 mg/mL clear solution, which was filtered through a microporous membrane for later use. Male CD mice aged 7 to 10 weeks were selected, and administered candidate compound solutions intravenously or orally. Whole blood was collected for a certain period of time, and prepared to obtain plasma. Drug concentration was analyzed by LC-MS/MS method, and pharmacokinetic parameters were calculated by Phoenix WinNonlin software (Pharsight, USA).

[8] = Body weight and tolerance in the Mia PaCa-2 tumor model; assay type: in vivo; conditions: each dose group (10 and 30 mg/kg PO QD × 22)
Procedure: Assay on pharmacodynamics in vivo in a subcutaneously transplanted tumor model of human pancreatic cancer Mia PaCa-2 cells in Balb/c Nude mice
Cell inoculation: 0.2 mL (5×10^6 cells/mouse) of Mia PaCa-2 cells (plus Matrigel, 1:1 by volume) were subcutaneously inoculated into the right back of each mouse. When the average tumor volume reached 190 mm^3, mice were randomized into groups based on tumor volume and administration was initiated according to the protocol in Table 15.

## C=C(F)C(=O)N1CCN(c2nc(OC[C@@]34CCCN3C[C@H](F)C4)nc3c2CO[C@H](c2c(F)c(N)cc(C)c2C(F)(F)F)C3)C[C@@H]1CC#N [Compound of formula (I)]
[1]
  half-life at 1 μM: 3.04 h
[1]; read-out: CLint(hep)
  hepatocyte CLint at 1 μM: 7.6 µL/min/1e6 cells
[1]; read-out: CLint(liver)
  CLint scaled at 1 μM: 52.3 mL/min/kg
[2]
  half-life at 1 μM: 1.66 h
[2]; read-out: CLint(hep)
  hepatocyte CLint at 1 μM: 13.9 µL/min/1e6 cells
[2]; read-out: CLint(liver)
  CLint scaled at 1 μM: 38.7 mL/min/kg
[3]
  Detection of assay compound content within 120 min: 94%
[4]
  Detection of assay compound content within 120 min: 93%
[5]; CD-1, plasma, value used in the CD mouse PK table, read-out: Plasma protein unbound rate PPB (Unbound %)
  fraction unbound at 4 h, 2 μM: 0.12
[5]; CD-1 mice plasma, 2 μM, equilibrium dialysis 4 hours
  Protein unbound rate (%): 1.5%
[6]
  Protein unbound rate (%): 4.8%
[7]; intravenous injection, 2.0 mg/kg
  Area under the plasma concentration-time curve, AUCu: 0.1556 µM·h
[7]; male, mouse, plasma, intravenous injection, 2.0 mg/kg, Vdss/PPB(Unbound %), read-out: Apparent volume of distribution, Vdss, u
  Vd: 32.3 L/kg
[7]; male, mouse, plasma, intravenous injection, 2.0 mg/kg, read-out: Apparent volume of distribution, Vdss
  Vd: 3.9 L/kg
[7]; male, mouse, plasma, intravenous injection, 2.0 mg/kg
  AUC(0-t): 1.3 µM·h
[7]; male, mouse, plasma, intravenous injection, 2.0 mg/kg, read-out: Clearance rate, CL
  clearance: 40.6 mL/min/kg
[7]; male, mouse, plasma, intravenous injection, 2.0 mg/kg, read-out: Half-life time, T1/2 (converted)
  half-life: 1.7 h
[7]; male, mouse, plasma, oral administration, 10.3 mg/kg
  AUC(0-t): 1.42 µM·h
[7]; male, mouse, plasma, oral administration, 10.3 mg/kg, read-out: Bioavailability F (%)
  bioavailability: 21.9%
[7]; male, mouse, plasma, oral administration, 10.3 mg/kg, read-out: Peak concentration, Cmax
  Cmax: 431 nM
[7]; male, mouse, plasma, oral administration, 10.3 mg/kg, read-out: Time-to-peak, Tmax
  Tmax: 1 h
[7]; oral administration, 10.3 mg/kg
  Area under the plasma concentration-time curve, AUCu: 0.1706 µM·h
[7]; oral administration, 10.3 mg/kg, Cmax × PPB(Unbound %)
  Peak concentration, Cmax, u: 51.7 nM
[8]
  body weight of mice: stable
  tolerance: no obvious intolerance
